In brackets after ≈: the same amount, converted by molar mass.
What was measured:
HCC1806 = test: Antiproliferative activity against human HCC1806 cells assessed as inhibition of cell growth at 30 uM relative to control; assay type: functional
U-87 MG = test: Antiproliferative activity against human U-87 MG cells assessed as reduction in cell viability by MTT assay; assay type: functional, cell-based, U-87MG ATCC
MCF7 [1] = test: Antiproliferative activity against human MCF7 cells assessed as reduction in cell viability incubated for 72 hrs by MTT assay; assay type: functional, cell-based; conditions: MCF7, 72 h
HeLa [2] = test: Antiproliferative activity against human HeLa cells assessed as reduction in cell viability by MTT assay; assay type: functional, cell-based
HCT-116 [3] = test: Antiproliferative activity against human HCT-116 cells assessed as inhibition of cell growth at 20 uM incubated for 48 hrs by MTT assay relative to control; assay type: functional
A549 = test: Antiproliferative activity against human A549 cells assessed as inhibition of cell growth at 20 uM incubated for 48 hrs by MTT assay relative to control; assay type: functional
[4] = biological target: Lysine-specific demethylase 5C (Homo sapiens, UniProt P41229); test: Inhibition of KDM5C (unknown origin)
HeLa [5] = test: Antiproliferative activity against human Hela cells by MTT assay; assay type: functional, cell-based
MDA-MB-231 [6] = test: Antiproliferative activity against human MDA-MB-231 cells assessed as reduction in cell viability incubated for 72 hrs by Celltiter-Glo reagent based assay; assay type: functional; conditions: MDA-MB-231, 72 h
HepG2 [7] = test: Antiproliferative activity against human HepG2 cells assessed as reduction in cell viability incubated for 72 hrs by Celltiter-Glo reagent based assay; assay type: functional; conditions: HepG2, 72 h
CAL-27 = test: Antiproliferative activity against human CAL-27 cells assessed as reduction in cell viability incubated for 24 hrs by MTT assay; assay type: functional, cell-based; conditions: CAL-27, 24 h
MDA-MB-231 [8] = test: Antiproliferative activity against human MDA-MB-231 cells by CCK8 assay; assay type: functional, cell-based
SMMC-7721 = test: Antiproliferative activity against human SMMC-7721 cells by CCK8 assay; assay type: functional, cell-based
QGY-7703 = test: Antiproliferative activity against human QGY-7703 cells by CCK8 assay; assay type: functional, cell-based
L02 = test: Antiproliferative activity against human L02 cells by CCK8 assay; assay type: functional, cell-based
KBv200 = test: Cytotoxicity against human KBv200 cells assessed as reduction in cell viability incubated for 72 hrs by SRB assay; assay type: functional, cell-based; conditions: KBv200, 72 h
K562/Adr [9] = test: Antiproliferative activity against human K562/Adr cells assessed as reduction in cell growth incubated for 72 hrs by MTT assay; assay type: functional, cell-based
MDA-MB-231 [10] = test: Cytotoxicity against human MDA-MB-231 cells assessed as reduction in cell viability incubated for 24 hrs by CCK-8 assay; assay type: functional, cell-based; conditions: MDA-MB-231, 24 h
HCT-116 [11] = test: Antiproliferative activity against human HCT-116 cells by MTT assay; assay type: functional, cell-based
MCF7 [12] = test: Antiproliferative activity against human MCF7 cells assessed as reduction in cell growth; assay type: functional, cell-based
K562 = test: Antiproliferative activity against human K562 cells assessed as reduction in cell viability incubated for 72 hrs by Celltiter-Glo reagent based assay; assay type: functional; conditions: K562, 72 h
Jurkat = test: Antiproliferative activity against human Jurkat cells assessed as reduction in cell viability incubated for 72 hrs by Celltiter-Glo reagent based assay; assay type: functional
HepG2 [13] = test: Cytotoxicity against human HepG2 cells assessed as reduction in cell viability incubated for 24 hrs by CCK-8 assay; assay type: functional, cell-based; conditions: HepG2, 24 h
[14] = biological target: Indoleamine 2,3-dioxygenase 1 (Homo sapiens, UniProt P14902); test: Inhibition of N-terminal His-tagged human IDO1 extracted from Escherichia coli
K562/Adr [15] = test: Reversal of multidrug resistance in human K562/Adr cells assessed as reversal fold by measuring ratio of adriamycin IC50 to adriamycin IC50 in presence of test compound at 10 uM; assay type: functional
HeLa [16] = test: Antiproliferative activity against human HeLa cells; assay type: functional, cell-based
HeLa [17] = test: Anticancer activity against human HeLa cells assessed as reduction in cell growth; assay type: functional, cell-based
4T1 = test: Anticancer activity against mouse 4T1 cells assessed as reduction in cell growth; assay type: functional, cell-based
Candida albicans = test: Antifungal activity against Candida albicans MTCC 3020 assessed as reduction in fungal growth; assay type: functional
[18] = system: Mycobacterium tuberculosis; test: Antimycobacterial activity against Mycobacterium tuberculosis H37Rv assessed as bacterial growth inhibition by microplate Alamar blue assay; assay type: functional

Chain of Lysine-specific demethylase 5C (P41229 whole entry): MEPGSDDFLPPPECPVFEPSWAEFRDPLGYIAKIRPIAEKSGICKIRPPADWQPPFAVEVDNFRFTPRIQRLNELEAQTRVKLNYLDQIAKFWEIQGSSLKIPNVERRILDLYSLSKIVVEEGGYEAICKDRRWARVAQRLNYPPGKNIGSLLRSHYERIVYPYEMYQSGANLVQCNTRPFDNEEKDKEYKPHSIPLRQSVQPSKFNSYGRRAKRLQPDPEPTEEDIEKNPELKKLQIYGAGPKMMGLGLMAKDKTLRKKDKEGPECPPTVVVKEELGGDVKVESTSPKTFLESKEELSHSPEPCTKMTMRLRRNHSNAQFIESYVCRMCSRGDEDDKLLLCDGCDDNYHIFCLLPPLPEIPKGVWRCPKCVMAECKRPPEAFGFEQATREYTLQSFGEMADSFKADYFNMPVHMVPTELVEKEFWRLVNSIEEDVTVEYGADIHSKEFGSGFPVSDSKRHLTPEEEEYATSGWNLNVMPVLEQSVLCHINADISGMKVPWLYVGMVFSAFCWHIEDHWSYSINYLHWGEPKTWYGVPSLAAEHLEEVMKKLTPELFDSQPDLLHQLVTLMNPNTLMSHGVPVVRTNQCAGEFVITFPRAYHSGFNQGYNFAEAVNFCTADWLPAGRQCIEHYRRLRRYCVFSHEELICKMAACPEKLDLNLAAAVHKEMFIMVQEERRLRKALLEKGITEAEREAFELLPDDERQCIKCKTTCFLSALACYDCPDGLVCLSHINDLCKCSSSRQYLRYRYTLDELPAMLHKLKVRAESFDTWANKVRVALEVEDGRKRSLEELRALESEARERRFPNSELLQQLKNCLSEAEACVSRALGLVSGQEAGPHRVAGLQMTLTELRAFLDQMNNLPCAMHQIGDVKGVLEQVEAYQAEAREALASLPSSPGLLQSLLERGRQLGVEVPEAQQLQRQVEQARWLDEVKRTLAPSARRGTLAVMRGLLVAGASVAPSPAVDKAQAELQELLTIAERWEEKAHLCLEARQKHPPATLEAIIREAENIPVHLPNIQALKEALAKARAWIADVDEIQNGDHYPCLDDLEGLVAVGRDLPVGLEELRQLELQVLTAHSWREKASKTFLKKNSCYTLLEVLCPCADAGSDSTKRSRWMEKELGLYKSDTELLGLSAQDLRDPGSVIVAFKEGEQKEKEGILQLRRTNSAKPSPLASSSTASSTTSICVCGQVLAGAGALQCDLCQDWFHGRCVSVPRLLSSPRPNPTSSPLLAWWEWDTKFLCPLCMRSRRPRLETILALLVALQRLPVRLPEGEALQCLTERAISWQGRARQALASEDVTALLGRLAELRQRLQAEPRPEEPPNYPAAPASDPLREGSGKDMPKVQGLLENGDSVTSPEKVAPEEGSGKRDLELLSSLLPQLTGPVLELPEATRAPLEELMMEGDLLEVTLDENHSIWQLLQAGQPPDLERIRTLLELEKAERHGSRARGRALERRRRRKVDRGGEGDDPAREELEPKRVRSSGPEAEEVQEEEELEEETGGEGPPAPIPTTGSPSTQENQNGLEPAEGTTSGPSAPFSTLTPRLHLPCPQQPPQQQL
Chain of Indoleamine 2,3-dioxygenase 1 (P14902 whole entry): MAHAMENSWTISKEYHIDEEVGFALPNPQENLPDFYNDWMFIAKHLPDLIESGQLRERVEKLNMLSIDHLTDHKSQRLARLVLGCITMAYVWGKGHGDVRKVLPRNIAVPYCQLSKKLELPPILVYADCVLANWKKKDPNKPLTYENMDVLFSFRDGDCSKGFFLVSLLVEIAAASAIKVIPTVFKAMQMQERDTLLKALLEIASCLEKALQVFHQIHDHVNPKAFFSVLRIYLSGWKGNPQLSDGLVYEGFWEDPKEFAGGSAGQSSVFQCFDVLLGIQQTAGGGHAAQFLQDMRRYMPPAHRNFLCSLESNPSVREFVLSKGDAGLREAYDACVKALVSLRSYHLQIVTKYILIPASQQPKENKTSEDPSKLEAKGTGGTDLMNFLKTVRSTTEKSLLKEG

## COC(=O)[C@@H]1Cc2c[nH]c3c(cccc23)/C=C/C(=O)OCCCC(=O)N[C@@H](CC(C)C)C(=O)N2CCC[C@H]2C(=O)N[C@@H](Cc2ccccc2)C(=O)N1
HCC1806
  inhibition at 30 µM: 97%

## COC(=O)[C@@H](NC(=O)[C@H](CC(C)C)NC(=O)[C@H](Cc1ccccc1C1=CC(=O)C=CC1=O)NC(=O)[C@@H](NC(=O)OC(C)(C)C)C(C)(C)C)C(C)C
U-87 MG
  IC50: 32000 nM

## Cc1ccccc1C(c1c[nH]c2ccccc12)c1c[nH]c2ccccc12
MCF7 [1]
  IC50: 5690 nM

## COC(=O)[C@H](CC(C)C)NC(=O)[C@H](Cc1ccccc1C1=CC(=O)C=CC1=O)NC(=O)[C@@H](NC(=O)OC(C)(C)C)C(C)(C)C
HeLa [2]
  IC50: 40000 nM

## COc1ccc(-c2c(-c3cc(OC)c(OC)c(OC)c3)cc(-c3cc(OC)c(OC)c(OC)c3)oc2=O)cc1OC
HCT-116 [3]
  inhibition at 20 µM: 89.4%
A549
  inhibition at 20 µM: 82.9%

## CCCCCCN(C)CCn1cc(-c2cccc(C(=O)O)c2)nn1
[4]
  IC50: 3010 nM

## O=C(Nc1cccc2cccnc12)c1ccccc1-c1ccc2c(c1)c1ccccc1n2-c1ccccc1
HeLa [5]
  IC50: 37100 nM

## COc1ccc(-c2c(C3(O)C=CC(=O)C=C3)[nH]c(=O)c3c2c2ccccc2n3Cc2ccccc2)cc1
MDA-MB-231 [6]
  IC50: 660 nM
HepG2 [7]
  IC50: 1390 nM

## O=C1NC(/C=C2/C(c3ccccc3)=C(c3ccccc3)c3ccccc32)=NC2c3ccccc3OC12 (stereo not drawn)
CAL-27
  IC50: 8790 nM

## COC(=O)[C@]1(C)CC[C@]2(C)CC[C@]3(C)C4=CC=C5C(=CC(=O)C(O)=C5C)[C@]4(C)CC[C@@]3(C)[C@@H]2C1 [PRISTIMERIN]
MDA-MB-231 [8]
  IC50: 1010 nM
SMMC-7721
  IC50: 1970 nM
QGY-7703
  IC50: 2340 nM
L02
  IC50: 3600 nM

## COC(=O)[C@]1(C)CC[C@]2(C)CC[C@]3(C)C4=CC=C5C(=CC(=O)C(OC(=O)CCCc6cn(CCCO[C@@H]7O[C@H](CO)[C@@H](O)[C@H](O)[C@H]7O)nn6)=C5C)[C@]4(C)CC[C@@]3(C)[C@@H]2C1
SMMC-7721
  IC50: 2780 nM
QGY-7703
  IC50: 5560 nM
L02
  IC50: 4610 nM

## CCC1=C[C@@H]2CN(C1)Cc1c([nH]c3ccccc13)[C@@](C(=O)OC)(c1cc3c(cc1OC)N(C)[C@H]1[C@@](O)(C(=O)OC)[C@H](OC(C)=O)[C@]4(CC)C=CCN5CC[C@]31[C@@H]54)C2 [VINORELBINE]
KBv200
  IC50: 434 nM
K562/Adr [9]
  IC50: 558 nM

## COc1ccc2c(c1)CC(Nc1ccccc1)(C(F)(F)F)n1c-2nc2ccccc21 (stereo not drawn)
MDA-MB-231 [10]
  IC50: 1300 nM

## CCOc1cccc(-c2ccc3c(c2)c2ccccc2n3C)c1C(=O)Nc1cccc2cccnc12
HeLa [5]
  IC50: 9600 nM
HCT-116 [11]
  IC50: 15200 nM

## C[Si](C)(C)c1ccc(C(c2c[nH]c3ccccc23)c2c[nH]c3ccccc23)cc1
MCF7 [1]
  IC50: 6710 nM

## CC[C@H](C)[C@@H]1NC(=O)[C@H](Cc2ccccc2)NC(=O)CC[C@@H](C(=O)OC)NC(=O)COC(=O)/C=C/c2cccc3c(c[nH]c23)C[C@@H](C(=O)OCc2ccccc2)NC1=O
HCC1806
  inhibition at 30 µM: 99%

## O=c1[nH]c(/C=C2/C(c3ccccc3)=C(c3ccccc3)c3cc(C(F)(F)F)ccc32)nc2ccccc12
CAL-27
  IC50: 9410 nM

## CCOC(=O)C1=C(Nc2ccc(OC)cc2)C[C@H](c2ccc(Cl)cc2)N(c2ccc(OC)cc2)[C@H]1c1ccc(Cl)cc1
MCF7 [12]
  IC50: 34.2 µg/mL (≈ 56.6 µM)

## O=C1C=CC2(O)c3c(nc4c(c3-c3ccccc3)c3ccccc3n4Cc3ccccc3)OC2C1 (stereo not drawn)
K562
  IC50: 2100 nM
Jurkat
  IC50: 900 nM

## FC(F)(F)C1(Nc2ccccc2)Cc2ccsc2-c2nc3ccccc3n21 (stereo not drawn)
HepG2 [13]
  IC50: 9600 nM

## O=C1c2ccccc2-n2c1c(-c1ccc(Cl)cc1Br)c(S(=O)(=O)c1ccccc1)c2-c1ccccc1
[14]
  IC50: 82.3 nM

## CCOc1cc(CC(=O)N[C@@H](CC(C)C)c2ccccc2N2CCCCC2)cc2c1C(=O)N[C@@H](C)C(=O)N[C@@H](C(C)C)C(=O)OC/C(c1ccccc1)=C\C2
K562/Adr [15]
  fold change (FC): 176.3

## Cc1ccccc1NC1(C(F)(F)F)Cc2ccccc2C(=O)N1CCO (stereo not drawn)
HeLa [16]
  IC50: 1130 nM

## Cc1ccc2c(c1)C(=O)OC1(C)CCCCN21 (stereo not drawn)
HeLa [17]
  IC50: 25.1 µg/mL (≈ 109 µM)
4T1
  IC50: 10.1 µg/mL (≈ 43.8 µM)

## Cc1cccc2c1C(=O)N1CCN(c3ccccc3)C1(C(F)(F)F)C2 (stereo not drawn)
HeLa [16]
  IC50: 1430 nM

## CC12CCCCN1c1ccc(Br)cc1C(=O)O2 (stereo not drawn)
Candida albicans
  MIC: 12.5 µg/mL (≈ 42.2 µM)

## CCOC(=O)C1=C(Nc2ccc(Cl)cc2)C[C@H](c2ccc(OC)cc2)N(c2ccc(Cl)cc2)[C@H]1c1ccc(OC)cc1
[18]
  MIC: 12.5 µg/mL

— ChEMBL document CHEMBL6134800, “Applications of innovative synthetic strategies in anticancer drug discovery: The driving force of new chemical reactions” (Bioorg Med Chem Lett, 2025)
